# Where a name gives a salt, the structure may show the parent alone.
# Target: T1, VhAasS (Vibrio harveyi, UniProt Q00IB3)
# T1 construct: gene aasS; His6-tagged, expressed in E. coli BL21[DE3], Ni-NTA purified; tag removal not mentioned
# T1 sequence (Q00IB3 1-533): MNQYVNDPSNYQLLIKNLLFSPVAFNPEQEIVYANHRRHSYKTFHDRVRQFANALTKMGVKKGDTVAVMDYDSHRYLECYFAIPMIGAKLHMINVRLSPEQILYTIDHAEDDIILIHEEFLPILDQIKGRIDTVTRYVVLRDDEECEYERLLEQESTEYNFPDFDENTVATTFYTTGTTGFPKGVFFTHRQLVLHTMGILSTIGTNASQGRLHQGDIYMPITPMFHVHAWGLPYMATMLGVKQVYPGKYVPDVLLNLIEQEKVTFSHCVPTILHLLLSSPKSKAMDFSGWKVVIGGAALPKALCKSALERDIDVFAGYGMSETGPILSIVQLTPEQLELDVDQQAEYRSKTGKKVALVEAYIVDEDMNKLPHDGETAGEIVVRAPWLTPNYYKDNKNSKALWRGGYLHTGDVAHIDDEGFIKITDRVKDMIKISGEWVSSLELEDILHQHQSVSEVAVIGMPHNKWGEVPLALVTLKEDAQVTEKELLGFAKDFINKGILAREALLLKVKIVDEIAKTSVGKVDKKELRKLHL
# Assay: urea-PAGE of acyl-ACP loading, ImageJ densitometry
# Type: biochemical
# Details: decanoic acid 1 mM, ATP 10 mM, MgCl2 12.5 mM, TCEP 2.5 mM; holo-EcACP or holo-VcACP 30 µM; enzyme 0.5 µM; pH 7.5, 37 °C, 24 h
compound,measurement,value
"CCCCCCCCCC(=O)NS(=O)(=O)OC[C@H]1O[C@@H](n2cnc3c(N)ncnc32)[C@H](O)[C@@H]1O [compound 7, 5′-O-(N-decanylsulfamoyl)adenosine mono sodium salt]",% inhibition at 1 mM,"In the presence of C10-AMS, VhAasS is completely inhibited from loading decanoic acid"

# Reference: paper PMC7575536, “Synthesis of an acyl-acyl carrier protein synthetase inhibitor to study fatty acid recycling” (Scientific Reports, 2020)
